Experimental data taken from patent publication US20170363612A1, “COMPOSITIONS AND METHODS RELATING TO PROLIFERATIVE DISORDERS” (Wayne State University, priority 2014, published 2017).
“And” between values parts separate entries of the source, which are not always exact repeats. Identical values can stand only once. Like-named read-outs stand apart in the source and are kept apart here.

Experiments:
[1] = cited from earlier work
[2] = cited from earlier work; remark: listed apart in the source
LD50 in rats (quoted) = conditions: oral 0.00013 mg/kg/day
SET Ribosome [3] = assay: TPA Reference Standard Response Modifier Assay with ribosome binding translation inhibitors, HEK293 hTRdm-fLUC#13; assay type: cell-based, human; conditions: with 100 nM TPA, 6 hours
SET Ribosome [4] = assay: CremophorEL Cell Count Dose Response Assay, HEK293 TR cell lines; assay type: cell-based, human; conditions: HEK293 mTRdm-fLUC#12; 100 nM TPA
SET Ribosome [5] = assay: TR SET Assay (TPA Reference Standard) on HCT116 TR Cell Panel before and after nonadherent tumorsphere growth; assay type: cell-based, human; design: concentration or dose not given beside the values; conditions: for SET Activity (day 0): TPA Reference Standard; for SET Activity (post-growth): TPA, after 32 days tumorsphere growth and 14 days replating
SET Ribosome [6] = tested on: SET Ribosome
topoisomerase I = molecular target: T1, topoisomerase I (Homo sapiens, UniProt P11387); conditions: cited from earlier work
T1 sequence (P11387 1-765): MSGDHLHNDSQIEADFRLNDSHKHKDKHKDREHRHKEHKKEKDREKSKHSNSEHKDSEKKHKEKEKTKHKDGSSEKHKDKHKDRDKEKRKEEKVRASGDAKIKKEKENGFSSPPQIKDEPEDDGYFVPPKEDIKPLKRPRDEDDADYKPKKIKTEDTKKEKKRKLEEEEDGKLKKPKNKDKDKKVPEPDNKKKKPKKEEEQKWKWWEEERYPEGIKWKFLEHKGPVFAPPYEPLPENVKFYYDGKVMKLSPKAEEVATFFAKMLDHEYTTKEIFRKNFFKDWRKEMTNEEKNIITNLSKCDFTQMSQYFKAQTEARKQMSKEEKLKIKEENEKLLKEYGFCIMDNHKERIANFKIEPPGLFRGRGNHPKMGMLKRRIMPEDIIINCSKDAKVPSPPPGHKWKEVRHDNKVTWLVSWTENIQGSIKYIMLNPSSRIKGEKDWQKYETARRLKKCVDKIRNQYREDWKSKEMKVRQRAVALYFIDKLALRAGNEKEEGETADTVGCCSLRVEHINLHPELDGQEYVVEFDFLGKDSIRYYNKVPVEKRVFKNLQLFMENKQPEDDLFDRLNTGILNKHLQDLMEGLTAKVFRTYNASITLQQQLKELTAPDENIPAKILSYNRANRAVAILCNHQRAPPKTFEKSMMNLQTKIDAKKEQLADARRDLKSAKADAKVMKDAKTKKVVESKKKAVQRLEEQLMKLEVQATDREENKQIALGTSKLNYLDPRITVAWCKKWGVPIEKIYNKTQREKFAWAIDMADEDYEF

[7] = in vivo, po; cited from earlier work
SET Ribosome [8] = assay: Topotecan Modifier Assay on TPA Reference Standard response, HEK293 TR cell lines; assay type: cell-based, human; conditions: HEK293 hTRdm-fLUC#13 and mTRdm-fLUC#45; with 100 nM TPA; 6 hours
SET Ribosome [9] = assay: Topotecan dose response assay, MCF7 TR Cell Panel; assay type: cell-based, human
PKC = conditions: cited from earlier work
LD50 in mice (quoted) = conditions: oral 0.000054 mg/kg/day vs mouse LD50

CC[C@H]1CN2CCc3cc(OC)c(OC)cc3[C@@H]2C[C@@H]1C[C@H]1NCCc2cc(OC)c(OC)cc21 [emetine, (2S, 3R, 11bS)-2-{{(1R)-6,7-dimethoxy-1,2,3,4-tetrahydroisoquinolin-1-yl]methyl}-3-ethyl-9,10-dimethoxy-2,3,4,6,7,11b-hexahydro-1H-pyrido[2,1-a] isoquinoline]
LD50 ([1]; intravenous): 5 µM | LD50 ([1]; oral): 35 µM | LD50 ([2]; subcutaneous): 58 µM | factor by which the IC100 dose is lower than the rat LD50 (LD50 in rats (quoted)): > 5,231 × | IC50 (SET Ribosome [3]; Homo sapiens, HEK293, read-out: IC50, SET ribosome inhibition): 175 nM | IC100 (100% SET Ribosome inhibition) (SET Ribosome [3]): 2.5 µM and 2.5 to 10 µM

CCCCCCCCCCCCCC(=O)O[C@@H]1[C@@H](C)[C@@]2(O)[C@@H](C=C(CO)C[C@]3(O)C(=O)C(C)=C[C@@H]23)[C@@H]2C(C)(C)[C@]12OC(C)=O [TPA, 12-O-tetradecanoylphorbol-13-acetate]
SET increase (SET Ribosome [4]): > 2000% | SET Activity (day 0) (SET Ribosome [5]; HCT116 mTRdm-fLUC#17): 226.3% | SET Activity (post-growth) (SET Ribosome [5]; HCT116 mTRdm-fLUC#17): 366.0% | SET Activity (day 0) (SET Ribosome [5]; HCT116 mTRdm-fLUC#25): 336.6% | SET Activity (post-growth) (SET Ribosome [5]; HCT116 mTRdm-fLUC#25): 26,675.6% | SET Activity (day 0) (SET Ribosome [5]; HCT116 mTRdm-fLUC#28): 1,365.5% | SET Activity (post-growth) (SET Ribosome [5]; HCT116 mTRdm-fLUC#28): 20,492.8% | SET Activity (day 0) (SET Ribosome [5]; HCT116 mTRdm-fLUC#36): 875.3% | SET Activity (post-growth) (SET Ribosome [5]; HCT116 mTRdm-fLUC#36): 3,926.9% | SET Activity (day 0) (SET Ribosome [5]; HCT116 mTRdm-fLUC#47): 237.5% | SET Activity (post-growth) (SET Ribosome [5]; HCT116 mTRdm-fLUC#47): 1,434.3% | SET Activity (day 0) (SET Ribosome [5]; HCT116 mTRdm-fLUC#49): 329.4% | SET Activity (post-growth) (SET Ribosome [5]; HCT116 mTRdm-fLUC#49): 2,015.4% | SET Activity (day 0) (SET Ribosome [5]; HCT116 mTRdm-fLUC#52): 261.1% | SET Activity (post-growth) (SET Ribosome [5]; HCT116 mTRdm-fLUC#52): 920.0% | SET Activity (day 0) (SET Ribosome [5]; HCT116 mTRdm-fLUC#58): 324.4% | SET Activity (post-growth) (SET Ribosome [5]; HCT116 mTRdm-fLUC#58): 636.6% | SET Activity (day 0) (SET Ribosome [5]; HCT116 mTRdm-fLUC#75): 693.1% | SET Activity (post-growth) (SET Ribosome [5]; HCT116 mTRdm-fLUC#75): 19,413.0% | SET Activity (day 0) (SET Ribosome [5]; HCT116 mTRdm-fLUC#139): 114.8% | SET Activity (post-growth) (SET Ribosome [5]; HCT116 mTRdm-fLUC#139): 311.9% | SET Activity (day 0) (SET Ribosome [5]; HCT116 mTRdm-fLUC#156): 462.3% | SET Activity (post-growth) (SET Ribosome [5]; HCT116 mTRdm-fLUC#156): 3,673.3% | SET Activity (day 0) (SET Ribosome [5]; HCT116 mTRdm-fLUC#190): 204.4% | SET Activity (post-growth) (SET Ribosome [5]; HCT116 mTRdm-fLUC#190): 178.3% | SET Activity (day 0) (SET Ribosome [5]; HCT116 mTRdm-fLUC#220): 115.5% | SET Activity (post-growth) (SET Ribosome [5]; HCT116 mTRdm-fLUC#220): 81.8% | SET Response (SET Ribosome [6]): Agonist

CCc1c2c(nc3ccc(O)cc13)-c1cc3c(c(=O)n1C2)COC(=O)[C@]3(O)CC [SN-38, 7-ethyl-10-hydroxy-camptothecin]
potency relative to irinotecan (topoisomerase I): 1000 X

CC[C@@]1(O)C(=O)OCc2c1cc1n(c2=O)Cc2cc3c(CN(C)C)c(O)ccc3nc2-1.Cl [Topotecan, (S)-10-[(dimethylamino)methyl]-4-ethyl-4,9-dihydroxy-1H-pyrano[3′,4′:6,7]indolizino[1,2-b]quinoline-3,14(4H,12H)-dione monohydrochloride]
oral bioavailability [7]: ~40% | time of peak plasma concentration post-administration [7]: 1 to 2 h | doses completely blocking SET Ribosome activity (SET Ribosome [8]): > 5 µM | IC100 (SET Ribosome [9]; MCF7 TR Cell Panel): > 5 µM | dose of maximal SET response (SET Ribosome [9]; MCF7 TR Cell Panel): 10 nM | dose range of SET Agonist activity (SET Ribosome [9]; MCF7 TR Cell Panel): 2 to 100 nM | concentrations giving complete SET Ribosome block (SET Ribosome [9]; MCF7 TR Class 3 and Class 4 lines, 6 hours): ≥ 5 µM | SET Response (SET Ribosome [6]; High dose (HD) 10 uM): Antagonist | SET Response (SET Ribosome [6]; Low dose (LD): Calon 1 uM, Topotecan 100 nM): Agonist

Bryostatin 2
enzyme binding constant relative to bryostatin 1 (PKC): 10 times

COc1ccc(C[C@H]2NC[C@H](O)[C@H]2OC(C)=O)cc1 [anisomycin, (2R,3S,4S)-4-hydroxy-2-(4-methoxybenzyl)-pyrrolidin-3-yl acetate]
LD50 ([2]; route not stated): 75 to 200 mg/kg | factor by which the IC100 dose is lower than a toxic concentration (LD50 in mice (quoted)): > 14,000 ×
